# Data published in the NIST ThermoML archive (doi:10.1016/j.jct.2013.11.001).
# Numbers after ± are expanded uncertainties.
# Assay: cn = amount concentration of the nth substance listed, in mol/dm3
# Details: 298.15 K, 101 kPa, Liquid, c1 = 0.1; for speed of sound: Sing-around technique in a fixed-path interferometer; for mass density: Vibrating tube method
SMILES,speed of sound [m/s],mass density [kg/m3]
CCCCCCCCCCCC[N+](C)(C)C.[Br-] [dodecyltrimethylammonium bromide] + O,1502 ± 1.2,998.575 ± 0.11
CCCCCCCCCCCCCC[N+](C)(C)C.[Br-] [tetradecyltrimethylammonium bromide] + O,1499.5 ± 1.2,998.003 ± 0.11
